Among the data in patent US20250179059A1 (The Regents of the University of California, priority 2021, published 2025) are IC50 and GI50 values, retold here.

One test has as its target T1, human BRD4 bromodomain II (Homo sapiens, UniProt O60885).
T1 construct: human BRD4 bromodomain II [based on Genbank NM_058243, residues 349-460]; host or cells: E. coli
In words: Bromodomain binding assay (AlphaScreen), BRD4 BDII. Particulars: AlphaScreen assay, Table C2; read-out: BRD4 BDII IC50. Put shortly: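 Read-out is AlphaScreen signal (ex 680 nm, em 520-620 nm) from streptavidin donor beads on a biotinylated acetylated histone H4 (aa 1-21) peptide and nickel acceptor beads on the His6-tagged bromodomain. IC50 values come from curve fits of percentage peptide binding against compound concentration.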
On the technique in general: Alpha assays give light when donor and acceptor beads are brought close together.
Broadly, the IC50 is the concentration needed to halve the response being measured. For the molecule `COC(=O)c1cc(-c2cccc(-c3ccc(NC(C)=O)c(F)c3)c2O)ccn1` [Example 201, Methyl 4-(4′-acetamido-3′-fluoro-2-hydroxy-[1,1′-biphenyl]-3-yl)picolinate], the IC50 was in the range of 10 to 100 nM.
The same measure, in the same setting: the value for `CC(=O)Nc1ccc(-c2cccc(-c3cccc(-c4ccc(N)nc4)c3)c2O)cc1F` [Example 202, N-(3″-(6-aminopyridin-3-yl)-3-fluoro-2′-hydroxy-[1,1′:3′,1″-terphenyl]-4-yl)acetamide] was more than 100 nM.
As to `CC(=O)Nc1ccc(-c2cccc(-c3cccc(N4CCC(CN)C4)c3)c2O)cc1F` (centres unmarked) [Example 203, N-(3″-(3-(aminomethyl)pyrrolidin-1-yl)-3-fluoro-2′-hydroxy-[1,1′:3′,1″-terphenyl]-4-yl)acetamide], the IC50 is 1 to 10 nM.
Still for that read-out and setting: the value for `CC(=O)Nc1ccc(-c2cccc(-c3cccc(-c4ccnc(N)c4)c3)c2O)cc1F` [Example 204, N-(3″-(2-aminopyridin-4-yl)-3-fluoro-2′-hydroxy-[1,1′:3′,1″-terphenyl]-4-yl)acetamide] was 1 to 10 nM; that for `CC(=O)Nc1ccc(-c2cccc(-c3ccnc(C(=O)O)c3)c2O)cc1F` [Example 205, 4-(4′-acetamido-3′-fluoro-2-hydroxy-[1,1′-biphenyl]-3-yl)picolinic acid] was 1 to 10 nM; that for `O=C1CCCN1c1c(F)cc(-c2cccc(-c3ccncc3)c2O)cc1F` [Example 207, 1-(3,5-difluoro-2′-hydroxy-3′-(pyridin-4-yl)-[1,1′-biphenyl]-4-yl)pyrrolidin-2-one] was more than 100 nM.
On the same count and under the same terms, next, `CC(=O)Nc1ccc(-c2cccc(-c3cccc(-c4nc[nH]n4)c3)c2O)cc1F` [Example 208, N-(3-fluoro-2′-hydroxy-3″-(1H-1,2,4-triazol-3-yl)-[1,1′:3′,1″-terphenyl]-4-yl)acetamide]: more than 100 nM.
The same measure, in the same setting: next, `CC(=O)Nc1ccc(-c2cccc(-c3cccc(C4CCNCC4)c3)c2O)cc1F` [Example 210, N-(3-fluoro-2′-hydroxy-3″-(piperidin-4-yl)-[1,1′:3′,1″-terphenyl]-4-yl)acetamide]: 1 to 10 nM; `CC(=O)Nc1ccc(-c2cccc(-c3ccnc(C(N)=O)c3)c2O)cc1F` [Example 211, 4-(4′-acetamido-3′-fluoro-2-hydroxy-[1,1′-biphenyl]-3-yl)picolinamide]: more than 100 nM; `CC(=O)Nc1ccc(-c2cccc(-c3csc(N4CCNCC4)n3)c2O)cc1F` [Example 212, N-(3-Fluoro-2′-hydroxy-3′-(2-(piperazin-1-yl)thiazol-4-yl)-[1,1′-biphenyl]-4-yl)acetamide]: more than 100 nM.
Regarding `O=C1CCCN1c1ccc(-c2cccc(-c3ccncc3)c2O)cc1Cl` [Example 213, 1-(3-Chloro-2′-hydroxy-3′-(pyridin-4-yl)-[1,1′-biphenyl]-4-yl)pyrrolidin-2-one 2,2,2-trifluoroacetate], the IC50 lay within 10 to 100 nM.
Same read-out and setting: the value for `CC(=O)Nc1ccc(-c2cccc(-c3cc(N4CCNCC4)cc(C(F)(F)F)c3)c2O)cc1F` [Example 215, N-(3-fluoro-2′-hydroxy-3″-(piperazin-1-yl)-5″-(trifluoromethyl)-[1,1′:3′,1″-terphenyl]-4-yl)acetamide] was 1 to 10 nM; that for `O=C1CCCN1c1ccc(-c2cc(F)cc(-c3ccnc(N4CCNCC4)c3)c2O)cc1F` [Example 216, 1-(3,5′-Difluoro-2′-hydroxy-3′-(2-(piperazin-1-yl)pyridin-4-yl)-[1,1′-biphenyl]-4-yl)pyrrolidin-2-one] was 1 to 10 nM.
`CC(=O)Nc1ccc(-c2cccc(-c3cc(N4CCNCC4)nc(N4CCNCC4)c3)c2O)cc1F` [Example 218, N-(3′-(2,6-di(piperazin-1-yl)pyridin-4-yl)-3-fluoro-2′-hydroxy-[1,1′-biphenyl]-4-yl)acetamide]: the concentration for half-maximal inhibition (IC50) lay in the range of 1 to 10 nM.
On the same count and under the same terms, next, `CC(=O)Nc1ccc(-c2cccc(-c3cccc(N4CC5(CNC5)C4)c3)c2O)cc1F` [Example 219, N-(3-fluoro-2′-hydroxy-3″-(2,6-diazaspiro[3.3]heptan-2-yl)-[1,1′:3′,1″-terphenyl]-4-yl)acetamide]: 10 to 100 nM.
For `CC(=O)Nc1ccc(-c2cccc(-c3cccc(N4CC(CN)C4)c3)c2O)cc1F` [Example 220, N-(3″-(3-(aminomethyl)azetidin-1-yl)-3-fluoro-2′-hydroxy-[1,1′:3′,1″-terphenyl]-4-yl)acetamide], the concentration for half-maximal inhibition (IC50) lay within 10 to 100 nM.
The same measure, in the same setting: the value for `CC(=O)Nc1ccc(-c2cccc(-c3cccc(N4CCC5(CCNC5)C4)c3)c2O)cc1F` (centres unmarked) [Example 221, N-(3-fluoro-2′-hydroxy-3″-(2,7-diazaspiro[4.4]nonan-2-yl)-[1,1′:3′,1″-terphenyl]-4-yl)acetamide] was 1 to 10 nM; that for `O=C1CCCCN1c1ccc(-c2cccc(-c3cccc(N4CCNCC4)c3)c2O)cc1F` [Example 223, 1-(3-fluoro-2′-hydroxy-3″-(piperazin-1-yl)-[1,1′:3′,1″-terphenyl]-4-yl)piperidin-2-one] was 10 to 100 nM.
Same read-out and setting: next, `CC(=O)Nc1ccc(-c2cccc(-c3ccnc(N4CC(O)C4)c3)c2O)cc1F` [Example 225, N-(3-fluoro-2′-hydroxy-3′-(2-(3-hydroxyazetidin-1-yl)pyridin-4-yl)-[1,1′-biphenyl]-4-yl)acetamide]: more than 100 nM; `CC(=O)Nc1ccc(-c2cccc(-c3cccc(-c4nn[nH]n4)c3)c2O)cc1F` [Example 227, N-(3-fluoro-2′-hydroxy-3″-(2H-tetrazol-5-yl)-[1,1′:3′,1″-terphenyl]-4-yl)acetamide]: more than 100 nM.
Regarding `O=C1NCCN1c1ccc(-c2cccc(-c3ccnc(N4CCNCC4)c3)c2O)cc1Cl` [Example 228, 1-(3-chloro-2′-hydroxy-3′-(2-(piperazin-1-yl)pyridin-4-yl)-[1,1′-biphenyl]-4-yl)imidazolidin-2-one], the IC50 was 1 to 10 nM.
As to `CC(=O)Nc1ccc(-c2cccc(-c3cccc(-c4c[nH]cn4)c3)c2O)cc1F` [Example 229, N-(3-fluoro-2′-hydroxy-3″-(1H-imidazol-4-yl)-[1,1′:3′,1″-terphenyl]-4-yl)acetamide], the 50% inhibitory concentration (IC50) was in the range of 10 to 100 nM.
Same read-out and setting: next, `CC(=O)Nc1ccc(-c2cccc(-c3ccnc(N4CC(N)C4)c3)c2O)cc1F` [Example 232, N-(3′-(2-(3-aminoazetidin-1-yl)pyridin-4-yl)-3-fluoro-2′-hydroxy-[1,1′-biphenyl]-4-yl)acetamide]: 10 to 100 nM.
With `CC(=O)Nc1ccc(-c2cccc(-c3cc(N4CCNCC4)ccn3)c2O)cc1F` [Example 233, N-(3-fluoro-2′-hydroxy-3′-(4-(piperazin-1-yl)pyridin-2-yl)-[1,1′-biphenyl]-4-yl)acetamide], the IC50 is more than 100 nM.
The same measure, in the same setting: next, `CC(=O)Nc1ccc(-c2cccc(-c3ccc(Cl)c(N4CCNCC4)c3)c2O)cc1F` [Example 241, N-(4″-chloro-3-fluoro-2′-hydroxy-3″-(piperazin-1-yl)-[1,1′:3′,1″-terphenyl]-4-yl)acetamide]: 1 to 10 nM; `CC(=O)Nc1ccc(-c2cc(F)cc(-c3ccc(Cl)c(N4CCNCC4)c3)c2O)cc1F` [Example 242, N-(4″-chloro-3,5′-difluoro-2′-hydroxy-3″-(piperazin-1-yl)-[1,1″-terphenyl]-4-yl)acetamide]: 1 to 10 nM; `CC(=O)Nc1ccc(-c2cccc(-c3cccc(-c4cn[nH]n4)c3)c2O)cc1F` [Example 243, N-(3-fluoro-2′-hydroxy-3″-(2H-1,2,3-triazol-4-yl)-[1,1′:3′,1″-terphenyl]-4-yl)acetamide]: more than 100 nM.
For the molecule `CC(=O)Nc1ccc(-c2cccc(-c3cccc(-c4cn[nH]c4)c3)c2O)cc1F` [Example 246, N-(3-fluoro-2′-hydroxy-3″-(1H-pyrazol-4-yl)-[1,1′:3′,1″-terphenyl]-4-yl)acetamide], the half-inhibitory concentration (IC50) was more than 100 nM.
Still for that read-out and setting: next, `CC(=O)Nc1ccc(-c2cc(F)cc(-c3ccc(F)c(C4=CCNCC4)c3)c2O)cc1F` [Example 247, N-(3,4″,5′-trifluoro-2′-hydroxy-3″-(1,2,3,6-tetrahydropyridin-4-yl)-[1,1′:3′,1″-terphenyl]-4-yl)acetamide]: 1 to 10 nM; `CC(=O)Nc1ccc(-c2cccc(-c3ccnc(N4CCNCC4)c3)c2C(F)F)cc1F` [Example 250, N-(2′-(difluoromethyl)-3-fluoro-3′-(2-(piperazin-1-yl)pyridin-4-yl)-[1,1′-biphenyl]-4-yl)acetamide]: more than 100 nM.

The subject of another test is human SKM-1 acute myeloid leukemia cells. In words: SKM-1 antiproliferation cell-based assay (ATPlite). Particulars: Homo sapiens, SKM-1, SKM-1 antiproliferation assay. The protocol: The cell-based assay indirectly measures cell density (and therefore proliferation and/or survival) by detecting total ATP concentration in a homogeneous format. Briefly, human SKM-1 acute myeloid leukemia cells (Leibniz Institute DSMZ #ACC 547) proliferating in log phase are collected by centrifugation, re-suspended in culture media (RPMI 1640/15% FBS/100 U/mL penicillin/100 μg/mL streptomycin) and diluted to 34722 cells/mL in media after counting. Then 180 μL cells are plated per well into a 96-well tissue-culture treated, clear bottom plate (Coming #3603). A 96-well compound plate (Corning #3357) is then generated by serial dilution of compounds into DMSO over nine concentrations and adding separate negative (DMSO) and positive control (reference compound) wells. Each compound concentration is tested in triplicate. First, 1 μL from each well of the compound plate is added to 99 μL culture media in an intermediate plate and mixed by pipetting. Then 20 μL of the diluted compounds in media are added to the assay plate containing the cells. The assay plate is maintained for 4 days in a standard cell culture incubator. At the end of the incubation period, 100 μL ATPlite Istep (PerkinElmer) is added to the assay plate wells, and the resulting luminescence is detected using an Infinite M1000 or a Spark multimode plate reader (Tecan). Data analysis is performed in Prism (GraphPad Software). For curve fitting, a non-linear regression, variable slope equation is used to calculate cellular IC50s.
(In general: In ATP-based viability assays light output follows the ATP content of the culture.)
By GI50 is commonly meant the concentration that inhibits growth by half. Read a low GI50 as more potent growth inhibition. `Cc1cc(-c2ccc(N3CCCC3=O)c(Cl)c2)c(O)c(-c2cccc(N3CCN(C(C)(C)C)CC3)c2)n1` [Example 1041, 1-(4-(2-(3-(4-(tert-butyl)piperazin-1-yl)phenyl)-3-hydroxy-6-methylpyridin-4-yl)-2-chlorophenyl)pyrrolidin-2-one] returned a concentration for 50% growth inhibition (GI50) of 30 to 300 nM.

Still in this test, the particulars now being: SKM-1 antiproliferation assay.
In the case of `Cc1ncc(-c2cc(F)cc(-c3ccc(-n4ccn(C)c4=O)c(Cl)c3)c2O)cc1N1CC2(CC2)[C@](C)(O)C1` [Example 874], the 50% growth inhibitory concentration (GI50) fell in the range of 0.3 to 30 nM.
